Experiments:
[1] = system: Blumeria graminis f. sp. hordei; assay: Test Example D: Powdery mildew on barley; settings: Powdery mildew on barley; class of control value
Plasmopara viticola = assay: Test Example G: Downy mildew on vine; settings: Downy mildew on vine (Neomuscat); 250 ppm spray, 2.5 ml/pot; assessed 7 to 10 days after inoculation
Puccinia recondita = assay: Test Example E: Brown rust on wheat; type: in vivo; settings: Brown rust on wheat; class of control value
[2] = system: Colletotrichum orbiculare; assay: Test Example H: Anthracnose on cucumber; settings: Anthracnose on cucumber (Sagami Hanjiro); 250 ppm spray, 2.5 ml/pot; assessed 6 to 10 days after inoculation
Magnaporthe grisea = assay: whole plant or invertebrate; type: in vivo; settings: Blast on rice; class of control value
Phytophthora infestans = assay: whole plant or invertebrate; type: in vivo; settings: Late blight on tomato; class of control value
Botrytis cinerea = assay: Test Example B: Gray mold on tomato; settings: Gray mold on tomato; class of control value
Alternaia brassicicola = assay: Test Example C: Alternaria sooty spot on cabbage; type: in vivo; settings: Alternaria sooty spot on cabbage; class of control value
Source text: Seeds of a test plant (cabbage variety: Shikidori) were planted and cultivated until the cotyledons extended.
<Control Value> Control value=100{1−(n/3)}

SMILES	Test D control value class [1]	Test G control value class (Plasmopara viticola)	Test E control value class (Puccinia recondita)	Test H control value class [2]	Test A control value class (Magnaporthe grisea)	Test F control value class (Phytophthora infestans)	Test B control value class (Botrytis cinerea)	Test C control value class (Alternaia brassicicola)
CCn1c(-c2c(F)cc(F)cc2F)c(C(=O)C(C)C)cc(Cl)c1=O [compound 66]	H (more than 50% control value)	L (50% or less control value)	H (more than 50% control value)	H (more than 50% control value)	H (more than 50% control value)	L (50% or less control value)	H (more than 50% control value)	H (more than 50% control value)
CCn1c(-c2c(F)cc(F)cc2F)c(C(C)(C)C)ccc1=O [compound 67]	H (more than 50% control value)	L (50% or less control value)	H (more than 50% control value)	H (more than 50% control value)	L (50% or less control value)	L (50% or less control value)	H (more than 50% control value)	H (more than 50% control value)
Cn1c(-c2c(F)cc(F)cc2F)c(C(C)(C)C)ccc1=O [compound 68]	L (50% or less control value)	L (50% or less control value)	H (more than 50% control value)	H (more than 50% control value)	L (50% or less control value)	L (50% or less control value)	L (50% or less control value)	H (more than 50% control value)
CCn1c(-c2c(F)cc(F)cc2F)c(C(C)(C)C)cc(Cl)c1=O [compound 69]	L (50% or less control value)	L (50% or less control value)	H (more than 50% control value)	L (50% or less control value)	H (more than 50% control value)	L (50% or less control value)	H (more than 50% control value)	H (more than 50% control value)
CCn1c(-c2c(F)cc(F)cc2F)c(C(C)(C)C)cc(Br)c1=O [compound 70]	H (more than 50% control value)	L (50% or less control value)	H (more than 50% control value)	H (more than 50% control value)	H (more than 50% control value)	L (50% or less control value)	H (more than 50% control value)	H (more than 50% control value)
CCn1c(-c2c(F)cc(OC)cc2F)c(C(OC)C(C)C)cc(Cl)c1=O (centres unmarked) [compound 71]	H (more than 50% control value)	L (50% or less control value)	H (more than 50% control value)	H (more than 50% control value)	H (more than 50% control value)	L (50% or less control value)	H (more than 50% control value)	H (more than 50% control value)
CCOc1cc(F)c(-c2c(C(OC)C(C)C)cc(Cl)c(=O)n2CC)c(F)c1 (centres unmarked) [compound 72]	H (more than 50% control value)	H (more than 50% control value)	H (more than 50% control value)	H (more than 50% control value)	H (more than 50% control value)	L (50% or less control value)	H (more than 50% control value)	H (more than 50% control value)
CCn1c(-c2c(F)cc(OC)cc2F)c(C(=O)C(C)C)cc(Cl)c1=O [compound 73]	H (more than 50% control value)	H (more than 50% control value)	H (more than 50% control value)	H (more than 50% control value)	H (more than 50% control value)	L (50% or less control value)	H (more than 50% control value)	H (more than 50% control value)
CCn1c(-c2c(F)cc(OC)cc2F)c(C(C)(C)C)cc(Cl)c1=O [compound 74]	L (50% or less control value)	H (more than 50% control value)	H (more than 50% control value)	H (more than 50% control value)	H (more than 50% control value)	L (50% or less control value)	H (more than 50% control value)	H (more than 50% control value)
CCOc1cc(F)c(-c2c(C(C)(C)C)cc(Cl)c(=O)n2CC)c(F)c1 [compound 75]	L (50% or less control value)	L (50% or less control value)	H (more than 50% control value)	H (more than 50% control value)	L (50% or less control value)	L (50% or less control value)	H (more than 50% control value)	H (more than 50% control value)
CCn1c(-c2c(F)cc(OC)cc2F)c(C(C)(C)C)cc(Br)c1=O [compound 76]	L (50% or less control value)	L (50% or less control value)	H (more than 50% control value)	H (more than 50% control value)	H (more than 50% control value)	L (50% or less control value)	H (more than 50% control value)	H (more than 50% control value)
Cn1c(-c2c(F)cc(F)cc2F)c(C(C)(C)C)cc(Cl)c1=O [compound 77]	H (more than 50% control value)	L (50% or less control value)	H (more than 50% control value)	L (50% or less control value)	L (50% or less control value)	L (50% or less control value)	H (more than 50% control value)	H (more than 50% control value)
Cn1c(-c2c(F)cc(F)cc2F)c(C(C)(C)C)cc(Br)c1=O [compound 78]	H (more than 50% control value)	L (50% or less control value)	H (more than 50% control value)	H (more than 50% control value)	H (more than 50% control value)	L (50% or less control value)	H (more than 50% control value)	H (more than 50% control value)

Source: US11147272B2, “Pyridone compounds and agricultural and horticultural fungicides comprising the same as active ingredients” (MITSUI CHEMICALS AGRO, INC., priority 2017, dated 2021)
